For data set [1] the following is noted: rat, in vivo.
The conditions of data set [2]: rat, in vivo. The source holds these as a separate data set.
Procedure: Male Zucker fa/fa rats, about 17 to 18 weeks of age, purchased from Charles River Laboratories (Wilmington, Mass.), are maintained on a normal rodent diet. Animals are placed into treatment groups of 8 animals each. One treatment group was dosed subcutaneously twice weekly with 12.5 mg/kg of ISIS 366228 (SEQ ID NO: 203). Another treatment group was dosed twice weekly with 25 mg/kg of ISIS 366228. Other treatment groups were dosed with 12.5 mg/kg or 25 mg/kg ISIS 366228 twice weekly in combination with daily 3 mg/kg doses of rosiglitazone (Rosi) administered in powdered food. Another treatment group received the food-administered daily doses of 3 mg/kg of rosiglitazone alone. Saline-injected animals served as a control treatment group.
Tissue weights were also determined at the end of the study.
Data set [3] in a line: Plasma glucose, cholesterol and triglycerides in normal Sprague-Dawley rats (Table 14). It counts as in vivo, rat. Further details: plasma GLUCOSE WK 0 / plasma GLUCOSE WK 3: unit not given beside the values. As to the method: Each treatment group was comprised of 4 animals.
To further assess the physiological effects resulting from inhibition of target mRNA, the rats were evaluated at the beginning (Wk 0) and at the end (Wk 3) of the treatment period for plasma glucose, plasma cholesterol, and plasma triglyceride levels. Triglycerides and cholesterol were measured by routine clinical analyzer instruments (e.g. Olympus Clinical Analyzer, Melville, N.Y.). Glucose levels were measured using a glucose analyzer, for example a YSI glucose analyzer (YSI Scientific, Yellow Springs, Ohio). Results are presented in Table 14 as the average level of plasma glucose, plasma cholesterol (CHOL), or plasma triglycerides (TRIG) measured per treatment group.

The values that follow come from patent US8258114B2, “Modulation of glucose-6-phosphatase translocase expression” (Isis Pharmaceuticals, Inc., priority 2004, dated 2012).

Like-named read-outs stand apart in the source and are kept apart here.

As for “GTGCTTGGCGATGGTACTGA (chemistry not given here) [ISIS 366228]”, in data set [1], the “body weight (in words)” value is reported as “did not cause increased body weight”. The “renal enlargement (in words)” value in data set [2] is recorded as “renal enlargement associated with human glycogen storage disease type 1B is not observed”. Besides, the Fat pad weight in data set [2] (12.5 mg/kg) worked out at 7 grams; in data set [2] (25 mg/kg), 6 grams. Also, the “plasma cholesterol (CHOL) WK 3” value is reported as 49 in data set [3] (12.5 mg/kg twice weekly, saline 58); 70 in data set [3] (25 mg/kg twice weekly); 54 in data set [3] (50 mg/kg twice weekly). The “plasma triglycerides (TRIG) WK 0” value in data set [3] (12.5 mg/kg twice weekly, saline 69) is listed as 54; in data set [3] (25 mg/kg twice weekly), 56; in data set [3] (50 mg/kg twice weekly), 65. The “plasma cholesterol (CHOL) WK 0” value was 70 in data set [3] (12.5 mg/kg twice weekly, saline 74); 93 in data set [3] (25 mg/kg twice weekly); 76 in data set [3] (50 mg/kg twice weekly). The “plasma GLUCOSE WK 0” value in data set [3] (12.5 mg/kg twice weekly, saline 135) came out at 147; in data set [3] (25 mg/kg twice weekly) it was 148; in data set [3] (50 mg/kg twice weekly), 137. For the same sequence, the “plasma GLUCOSE WK 3” value was 146 in data set [3] (12.5 mg/kg twice weekly, saline 139); 149 in data set [3] (25 mg/kg twice weekly); 139 in data set [3] (50 mg/kg twice weekly). Besides, the “plasma triglycerides (TRIG) WK 3” value in data set [3] (12.5 mg/kg twice weekly, saline 140) came out at 84; in data set [3] (25 mg/kg twice weekly) it was 76; in data set [3] (50 mg/kg twice weekly) it was 64. The “plasma triglycerides (in words)” value in data set [3] (12.5 to 50 mg/kg, three weeks) is recorded as “prevented the increases in triglycerides observed in saline-treated animals”.
